Assay results as given in the NIST ThermoML archive (doi:10.1021/je0602723).

Assay: activity coefficient (dimensionless); of the first substance listed, at infinite dilution; xn = mol fraction of the nth substance listed
Conditions: Liquid, Chromatography, x1 = 0

Cc1ccccc1 [toluene] + CCOS(=O)(=O)[O-].CCn1cc[n+](C)c1
Conditions	activity coefficient
312.3 K	5.77
323 K	5.62
333.5 K	5.45
343.9 K	5.29
354.4 K	5.08
364.7 K	4.88
